Data set [1] is described as follows: solubility in organic solvents. The note with it: in chloroform, dimethylsulfoxide, acetonitrile. The data set is classed as physicochemical.
The subject of data set [2] is human platelet aggregation. Put plainly: human platelet aggregation inhibition. The class given is cell-based. The note with it: purified inhibitor, red crystals, read-out: ic50 activity against human platelet aggregation.
A further data set concerns the target T1, soybean lipoxygenase (Glycine max, UniProt P08170).
T1 sequence (P08170 1-839): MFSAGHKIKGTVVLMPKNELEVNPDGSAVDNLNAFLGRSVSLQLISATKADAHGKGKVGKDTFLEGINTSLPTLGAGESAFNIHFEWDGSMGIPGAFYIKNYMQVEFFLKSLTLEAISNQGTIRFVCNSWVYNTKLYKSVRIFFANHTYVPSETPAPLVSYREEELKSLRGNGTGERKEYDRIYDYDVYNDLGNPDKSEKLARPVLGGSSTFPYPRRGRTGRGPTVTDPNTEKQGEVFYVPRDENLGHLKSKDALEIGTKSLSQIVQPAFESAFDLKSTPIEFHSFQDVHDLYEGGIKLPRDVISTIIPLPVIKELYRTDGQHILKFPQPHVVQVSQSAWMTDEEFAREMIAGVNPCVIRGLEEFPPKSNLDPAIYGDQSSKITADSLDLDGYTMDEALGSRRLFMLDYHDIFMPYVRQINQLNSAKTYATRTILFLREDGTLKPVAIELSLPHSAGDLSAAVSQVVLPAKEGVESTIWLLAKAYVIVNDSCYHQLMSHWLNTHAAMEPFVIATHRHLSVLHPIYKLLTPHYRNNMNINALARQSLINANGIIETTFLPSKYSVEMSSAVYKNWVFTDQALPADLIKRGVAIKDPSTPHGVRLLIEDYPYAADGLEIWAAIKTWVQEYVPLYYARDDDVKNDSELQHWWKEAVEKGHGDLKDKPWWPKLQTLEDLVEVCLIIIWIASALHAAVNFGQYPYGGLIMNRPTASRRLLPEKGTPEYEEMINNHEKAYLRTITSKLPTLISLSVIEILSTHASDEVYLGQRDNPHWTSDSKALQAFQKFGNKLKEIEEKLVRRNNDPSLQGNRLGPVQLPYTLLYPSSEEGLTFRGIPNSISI
Briefly: soybean lipoxygenase inhibition. The data set is classed as biochemical. Conditions: purified inhibitor, red crystals; pH 9; read-out: ic50 activity against soybean lipoxygenase.

1 molecule from patent EP1409705B1, “A PROCESS FOR THE PRODUCTION OF AN INHIBITOR OF HUMAN PLATELET AGGREGATION AND SOYBEAN LIPOXYGENASE” (Council of Scientific and Industrial Research;an Indian …, priority 2001, dated 2002) can be followed below.

A word on the IC50: it is the concentration that inhibits the measured activity by half.

Regarding `CCC(=O)C=CC=CC(C)=CC=CC=Cc1ccccc1` [inhibitor, 8-methyl 13-phenyl trideca 4,6,8,10,12 pentene-3-one], in data set [1], the Solubility entry is “highly soluble”. For the same molecule, the IC50 worked out at 234 µM in data set [2] and 95.6 µM at soybean lipoxygenase.
